Results on 16 molecules are retold here after patent publication US9193687B2 (priority 2007, dated 2015).

The subject of one data set is prostate cancer (PC3). Briefly: cells. To be noted: read-out: Cytotoxicity IC50, PC3.
For another data set, the system named is lung cancer H460. Briefly: cells.
The next data set relates to lung cancer H1299. Put plainly: cells.
For data set [1], the system named is CCRF-CEM human lymphoblastic leukemia cells. Conditions: read-out: Cytotoxicity IC50, CCRF-CEM.
Data set [2] has as its system Human colon carcinoma HCT-116 cells. To be noted: read-out: Cytotoxicity IC50, HCT-116.
Data set [3] deals with Human mammary carcinoma (MX-1) tumor cells. Briefly: In vitro cytotoxicity, SRB assay, 72-hr incubation. To be noted: read-out: Cytotoxicity IC50, MX-1. (In general: The SRB assay estimates cell density from bound dye.)
The next data set has as its system CCRF-CEM/Taxol. Put plainly: In vitro cytotoxicity, XTT assay, taxol-resistant subline. Conditions: read-out: Cytotoxicity IC50, CCRF-CEM/Taxol. (Formazan colour is commonly taken as a measure of viable cells.)
For data set [4], the system named is CCRF-CEM human lymphoblastic leukemia cells. Briefly: cells. Conditions: read-out: Cytotoxicity IC50, CCRF-CEM.
In data set [5] the test system is Human colon carcinoma HCT-116 cells. Put plainly: cells.
In data set [6] the test system is human mammary carcinoma MX-1 xenograft. Briefly: Antitumor therapeutic effect against MX-1 xenograft in nude mice. Conditions: i.v. injection; for Therapeutic effect: complete tumor remission (CR), mice with CR/total and day: treatment from Day 8, dose and schedule per compound as in Table 3 (30-150 mg/kg); for Maximal body-weight loss (%) / Therapeutic effect: tumor relapse: dose and schedule per compound as in Table 3. Type of data set: in vivo. As for the experimental part:
(§1) Athymic nude mice bearing the nu/nu gene were obtained from NCI, Frederick, Md. and used for all human tumor xenografts. Male nude mice 6 weeks or older weighing 20-24 g or more were used. Compounds were administered via the tail vein for i.v. injection or infusion as described previously.^64 A typical formulation for chemotherapeutic studies for each drug was dissolved in DSMO to make a 25 mg/ml fresh solution, 0.4 ml of this solution was mixed with 0.3 ml of Tween 80, plus 1.3 ml to make 2 ml of 5 mg/ml solution. Bolus injection volume was 0.1-0.2 ml per mouse. Tumor volume was assessed by measuring length×width×height (or width) by using a caliper. For tumor-bearing nude mice during the course of the experiment, the body weight refers to total weight minus the weight of the tumor. All animal studies were conducted in accordance with the guidelines for the National Institute of Health Guide for the Care and Use of Animals and the protocol approved by the Institutional Animal Care and Use Committee.
The therapeutic effects of a drug against human tumor xenografts in nude mice, under the optimal therapeutic conditions but without any lethality due to drug toxicity, the following degrees of therapeutic effects are defined and calculated by the following formula: […]
where • T0 is the initial tumor size (in mm^3) at beginning of drug treatment; • Tc is tumor size of untreated control group on a given date; and • Tx is tumor size of the drug treated group on a given date.
[formula] • Tumor disappearance (complete remission or CR) is defined by the effect where • [Tx=0] for a period of time (in days) for a proportion of animals (NCR/N), where • N is the total number of animals in the group, and NCR is the number of mice in the group that achieved CR. • Tumor relapse is quantitatively calculated by • [The Day tumor relapsed (Drelp)—The Day CR achieved (DCR)] (Eq. 3) for a proportion of animals (Nrelp/N) where N is the total number of animals in the group, and Nrelp is the number of the mice in the group that relapsed. • The log cell kill (LCK) of the tumor tissue after a given chemotherapy that reached CR is estimated by: LCK=log [2^(Tumor remission in days/Tumor doubling time in days)] (Eq. 4)
(§2) Athymic nude mice bearing the nu/nu gene were used for human breast tumor MX-1 xenograft (FIGS. 3 and 4) and human brain glioma U87 GM xenograft (FIG. 5). Nude mice were obtained from National Cancer Institute, Frederick, Md. Male mice 6 weeks old or older weighing 22 g or more were used for experiments with subcutaneous tumor inoculation as described previously.^67 Drug was administrated via the tail vein by iv injection. Tumor volumes were assessed by measuring length×width×height (or width) by using caliper. Vehicle used was 20 μL DMSO in 180 μL saline. All animal studies were conducted in accordance with the guidelines of the U.S. National Institutes of Health Guide for the Care and Use of Animals and the protocol approved by the Institutional Animal Care and Use Committee.

Data set [7] deals with human glioma U87 GM s.c. xenograft. Briefly: Therapeutic effect against U87 glioma s.c. xenograft in nude mice. Type of data set: in vivo. How it is done:
as §1
as §2, with “Committee. […]” for “Committee.”

Data set [8] relates to biosynthesis of DNA, RNA and protein in MX-1 cells. Put plainly: Inhibition of biosynthesis of DNA, RNA and protein (tritiated tracer incorporation). It is filed as cell-based, human. To be noted: for inhibition at 10 µM: Homo sapiens, MX1, read-out: Protein synthesis inhibition.
Experimental: [^3H]Thymidine (1 uCi), [^3H]adenosine (1 μCi) and [^3H]leucine (2 μCi) were used as the tracers for incorporation into DNA, RNA and protein, respectively. […] Incubation was terminated at each time points as indicated.
The nature of data set [9]: Half-life in intravenous injection vehicle. To be noted: intravenous injection vehicle (DMSO/Tween 80/saline).
Setting [10] is: Homo sapiens, NCI-H460, read-out: Cytotoxicity IC50, H460.
Where [11] appears, read: Homo sapiens, NCI-H1299, read-out: Cytotoxicity IC50, H1299.
Where [12] appears, read: HCT-116, read-out: Cytotoxicity IC50, HCT-116.
Setting [13] is: HCT-116, 72 h, read-out: Cytotoxicity IC50, HCT-116.

Several values for one entry are separate records, joined by “and”; a condition that tells them apart may be missing. Equal values may be shown once. Where a name gives a salt, the structure may show the parent alone. Read-outs that look alike come from different tables or passages of the source.

Regarding `N.N.[Cl][Pt][Cl]` [Cisplatin, reference compound], the IC50 came to 9960 nM with prostate cancer (PC3) (Table 2); 18400 nM in the data set with lung cancer H460 (read-out: Cytotoxicity IC50, H460, Table 2); 13600 nM with lung cancer H1299 (read-out: Cytotoxicity IC50, H1299, Table 2); 3540 nM in data set [1] (Table 2); 12700 nM in data set [2] (Table 2).

Turning to `Cc1cccc2c(Nc3cc(COC(=O)Nc4ccc(N(CCCl)CCCl)cc4)cc(NC(=O)OCC(C)C)c3)c3ccccc3nc12` [BO-1245], the IC50 in data set [2] (Table 1, SRB, 72-hr incubation) turned out to be 2400 nM; in data set [3] (Table 1, SRB, 72-hr incubation), 5970 nM; in the data set on CCRF-CEM/Taxol (Table 1, XTT, 72-hr incubation), 3360 nM.

`Cc1ccc(Nc2c3ccccc3nc3ccccc23)cc1NC(=O)Nc1ccc(N(CCCl)CCCl)cc1` [BO-1150]: the IC50 in data set [1] (Table 1, XTT, 72-hr incubation) amounted to 20 nM; in data set [2] (Table 1, SRB, 72-hr incubation) it was 260 nM; in data set [3] (Table 1, SRB, 72-hr incubation), 580 nM; with CCRF-CEM/Taxol (Table 1, XTT, 72-hr incubation), 30 nM.

In the case of `CN(C)CCC(=O)Nc1cccc(NC(=O)Nc2ccc(N(CCCl)CCCl)cc2)c1` (as salt: HCl) [BO-2091, N-(3-(3-(4-(bis(2-chloroethyl)amino)-phenyl)ureido)phenyl)-3-(dimethylamino)-propanamide], the melting point (in general, the temperature, or range, at which the solid turns liquid) lay within 88 to 90 °C.

Turning to `CCN(CC)CC(=O)Nc1cccc(NC(=O)Nc2ccc(N(CCCl)CCCl)cc2)c1` [BO-2183], the IC50 in the data set on prostate cancer (PC3) (Homo sapiens) amounted to 13000 nM; in the data set with lung cancer H460 (setting [10]) it was 5670 nM; with lung cancer H1299 (setting [11]), 11700 nM; in data set [4], 2010 nM; in [5] (setting [12]) it was 4620 nM.

As for `O=C(CN1CCCCC1)Nc1ccc(NC(=O)Nc2ccc(N(CCCl)CCCl)cc2)cc1` [BO-2092, N-(4-(3-(4-(bis(2-chloroethyl)amino)phenyl)ureido)-phenyl)-2-(piperidin-1-yl)-acetamide], the IC50 in the data set with prostate cancer (PC3) (Homo sapiens) came out at 2240 nM; in the data set on lung cancer H460 (setting [10]) it was 1050 nM; in the data set on lung cancer H1299 (setting [11]), 2520 nM; in data set [4] it was 310 nM; in data set [5] (setting [12]) it was 1500 nM.

On to `O=C(CCN1CCC(N2CCCCC2)CC1)Nc1ccc(NC(=O)Nc2ccc(N(CCCl)CCCl)cc2)cc1` [BO-2118], for which the IC50 in the data set with prostate cancer (PC3) (Homo sapiens) was 30000 nM; in the data set with lung cancer H460 (setting [10]), 14500 nM; in the data set on lung cancer H1299 (setting [11]), 36000 nM; in [4], 720 nM; in data set [5] (setting [12]) it was 11100 nM.

`Cc1ccc(Nc2c3ccccc3nc3c(C)cccc23)cc1NC(=O)Nc1ccc(N(CCCl)CCCl)cc1` [BO-1051]: the “Therapeutic effect: complete tumor remission (CR), mice with CR/total and day” value in data set [6] was “achieved complete tumor remission and 3/3 CR on D16, 16, 18”. Further, the “Maximal body-weight loss (%)” value in data set [6] came to 11%. The “Therapeutic effect: tumor relapse” value in data set [6] was “No relapse on D70”. The “Tumor size as % of original tumor size” value in [7] (100 mg/kg, Q2D×5, n=3, one cycle, 10 and 12 days after last dose) is on record as 18%. Besides, in [7] (BO-1049 150 mg/kg, BO-1051 100 mg/kg, BO-1055 30 mg/kg, Q2D×5, i.v.-injection), the Tumor-growth suppression entry is on record as “complete tumor-growth suppression”. In addition, the “Therapeutic effect compared with cyclophosphamide (80 mg/kg, Q2D×5)” value in data set [7] (parallel study) was “superior therapeutic effects than cyclophosphamide”. Further, the “Delay in reaching maximal effect on DNA and RNA biosynthesis” value in [8] (10 μM) is “about 1 hr”. For the same molecule, the inhibition (in general, how much of the control response was suppressed) at 10 µM in data set [8] is < 20%. Further, the IC50 in [4] (72 h) came to 80 nM; in [5] (setting [13]) it was 440 nM; in the data set on CCRF-CEM/Taxol (Homo sapiens, CCRF-CEM, 72 h), 90 nM. For the same molecule, the half-life – broadly, how long it takes for the measured level to halve – in “Half-life in rat plasma” is 2.25 days; in data set [9], ~45 days.

For the molecule `O=C(CN1CCC(N2CCCCC2)CC1)Nc1ccc(NC(=O)Nc2ccc(N(CCCl)CCCl)cc2)cc1` [BO-2117], the IC50 was 7240 nM in the data set with prostate cancer (PC3) (Homo sapiens); 14900 nM in the data set on lung cancer H460 (setting [10]); 14400 nM in the data set on lung cancer H1299 (setting [11]); 1140 nM in data set [4]; 4240 nM in data set [5] (setting [12]).

`O=C(CN1CCC(N2CCCCC2)CC1)Nc1cccc(NC(=O)Nc2ccc(N(CCCl)CCCl)cc2)c1` [BO-2188]: the IC50 with prostate cancer (PC3) (Homo sapiens) worked out at 25900 nM; in the data set on lung cancer H460 (setting [10]), 12300 nM; with lung cancer H1299 (setting [11]) it was 12800 nM; in data set [4], 30400 nM; in [5] (setting [12]) it was 6150 nM.

On to `CN(C)CC(=O)Nc1cccc(NC(=O)Nc2ccc(N(CCCl)CCCl)cc2)c1` (as salt: hydrochloride) [BO-2189, N-(3-(3-(4-(bis(2-chloroethyl)amino)phenyl)ureido)phenyl)-2-(dimethyl-amino)acetamide], for which the melting point was in the range of 62 to 64 °C.

Turning to `CCN(CC)CCC(=O)Nc1ccc(NC(=O)Nc2ccc(N(CCCl)CCCl)cc2)cc1` [BO-2073, N-(4-(3-(4-(Bis(2-chloroethyl)amino)phenyl)ureido)-phenyl)-3-(diethylamino)-propanamide], the IC50 with prostate cancer (PC3) (Homo sapiens) stood at 2470 nM; in the data set on lung cancer H460 (setting [10]), 1830 nM; in the data set with lung cancer H1299 (setting [11]), 10300 nM; in data set [4], 300 nM; in data set [5] (setting [12]), 2090 nM.

Turning to `CC(C)COC(=O)Nc1cc(COC(=O)Nc2ccc(N(CCCl)CCCl)cc2)cc(Nc2c3ccccc3nc3ccccc23)c1` [BO-1244], the IC50 in data set [1] (Table 1, XTT, 72-hr incubation) is 190 nM; in data set [2] (Table 1, SRB, 72-hr incubation), 300 nM; in [3] (Table 1, SRB, 72-hr incubation), 1130 nM; in the data set on CCRF-CEM/Taxol (Table 1, XTT, 72-hr incubation) it was 650 nM.

Turning to `CCN(CC)CCC(=O)Nc1cccc(NC(=O)Nc2ccc(N(CCCl)CCCl)cc2)c1` [BO-2120], the IC50 in the data set with prostate cancer (PC3) (Homo sapiens) was found to be 13000 nM; in the data set on lung cancer H460 (setting [10]) it was 6790 nM; with lung cancer H1299 (setting [11]), 5770 nM; in data set [4], 860 nM; in [5] (setting [12]) it was 3210 nM.

On to `O=C(CCN1CCCC1)Nc1ccc(NC(=O)Nc2ccc(N(CCCl)CCCl)cc2)cc1` [BO-2075], for which the IC50 in the data set on prostate cancer (PC3) (Homo sapiens) stood at 3480 nM; with lung cancer H460 (setting [10]), 1030 nM; with lung cancer H1299 (setting [11]), 6430 nM; in [4] it was 280 nM; in data set [5] (setting [12]), 1480 nM.

As for `Cc1cc(NC(=O)Nc2ccc(N(CCCl)CCCl)cc2)c2ccccc2n1` [BO-1038, 1-{4-[bis(2-chloroethyl)amino]phenyl}-3-(2-methylquinolin-4-yl)urea], the “Therapeutic effect: complete tumor remission (CR), mice with CR/total and day” value in [6] was “achieved complete tumor remission and 3/3 CR on D16, 16, 16”. Further, the “Maximal body-weight loss (%)” value in data set [6] is reported as 4%. Moreover, the “Therapeutic effect: tumor relapse” value in data set [6] was “No relapse on D70”. Moreover, the inhibition at 10 µM in [8] is 40 to 80%. For the same molecule, the IC50 in data set [4] (72 h) amounted to 190 nM; in data set [5] (setting [13]), 1420 nM; in data set [3] (Homo sapiens, 72 h) it was 340 nM; in the data set with CCRF-CEM/Taxol (Homo sapiens, CCRF-CEM, 72 h) it was 430 nM.
